Measured values taken from patent EP0551200A1, “Protein phosphatase inhibitors for use in therapy” (priority 1992, dated 1993).

Legend:
[1] = system: Egr-1 protein; assay: Immunoprecipitation of 32P-labeled Egr-1 protein from Balb/c 3T3 cells; format: cell-based, mouse; details: 2 h treatment; OA 0.5 µM, calyculin A 25 nM, 20% fetal calf serum
Experimental: Quiescent Balb/c 3T3 cells were labeled with [³²P]-orthophosphate and incubated with either 20% fetal calf serum or okadaic acid (0.5 µM) for 2 h as described in "Experimental Procedures" of Example 2. Egr-1 protein(s) was immunoprecipitated by anti-Egr-1 antibody (R5232) and subjected to 7.5% SDS-PAGE. The dried SDS-gel was autoradiographed. lanes C, S and OA show immunoprecipitated proteins derived from quiescent cells, serum and okadaic acid-treated cells respectively. • (B). The immunoprecipitated Egr-1 protein(s) from okadaic acid-treated [³²P]-labeled Balb/c 3T3 cells was also subjected to 2-D gel electrophoresis as previously described (Guy et al, J. Biol. Chem. 266, 14343-14352, 1991). […]
The radioactivity of the in vitro transcribed RNA was determined and equal amounts of radioactive RNA from uninduced and okadaic acid treated cells were used to hybridize to specific plasmid (5 µg) previously applied to a nylon matrix with the aid of a slot blot applicator (Schleicher & Schuell, Keene, NH, US). […]
Okadaic acid or calyculin A was then added to a final concentration of 0.5 µM or 25 nM respectively and incubated for another 2 h. […] The immunoprecipitated proteins were analyzed by 7.5% SDS-PAGE as well as by two-dimensional gel electrophoresis as described previously (Guy et al, J. Biol. Chem. 266, 14343-14352, 1991). […]

[2] = system: Egr-1 mRNA; assay: Stability of induced Egr-1 mRNA after actinomycin D, Northern blot, Balb/c 3T3 cells; format: cell-based, mouse; details: actinomycin D 25 µg/ml
Experimental: (A). Quiescent Balb/c 3T3 cells were incubated with either 0.5 µM of okadaic acid or 20% serum for 3 h or 0.5 h, respectively. Actimomycin D (final concentration being 25 µg/ml) was then added. The cells were then harvested at 0.5, 1, 1.5, 2 and 3 h after the addition of actinomycin D. RNA was isolated from these cells and analyzed by Northern blot. The blot was probed with Egr-1 or GADPH cDNA.
Quiescent mouse Balb/c 3T3 fibroblasts were incubated with DMEM containing either 0.5µM okadaic acid or 10% fetal calf serum for the times indicated in Fig. 10. […] Cells were harvested at the indicated time points and extracted for RNA and the RNA subjected to Northern blot analysis (Fig. 10).

SMILES: C=C1[C@@H](O)[C@@H]2O[C@]3(CC[C@H](/C=C/[C@@H](C)[C@@H]4CC(C)=C[C@@]5(O[C@H](C[C@@](C)(O)C(=O)O)CC[C@H]5O)O4)O3)CC[C@H]2O[C@@H]1[C@@H](O)C[C@H](C)[C@H]1O[C@@]2(CCCCO2)CC[C@H]1C [okadaic acid]
- Egr-1 phosphoprotein immunoprecipitated (in words) [1]: high cellular concentration of the about 100 kDa Egr-1 phosphoprotein
- time for which induced Egr-1 mRNA is detectable after actinomycin D treatment ([2]; 0.5 µM): up to 5.5 h
- half life of the induced Egr-1 message ([2]; calculated from the data in Fig. 10): about 120 min
